Test results taken from US20120101032A1, “NOVEL MACROCYCLIC INHIBITORS OF HEPATITIS C VIRUS REPLICATION” (priority 2010, published 2012).
Like-named read-outs stand apart in the source and are kept apart here.

Key:
hepatitis C replicon = hepatitis C replicon EC50 assay; assay type: cell-based; conditions: Hepatitis C virus
Excerpt: NS3-NS4 inhibition activity can be determined using known assay methods.

NS3/NS4 complexes = NS3/NS4 complexes (Hepatitis C virus genotype 1a, UniProt P27958); experiment: biochemical; conditions: NS3-NS4 activity; 23° C., pH 7.5, 25 μM NS4A peptide; read-out: IC50
NS3/NS4 complexes, sequence (P27958 1027-1657, one chain of several): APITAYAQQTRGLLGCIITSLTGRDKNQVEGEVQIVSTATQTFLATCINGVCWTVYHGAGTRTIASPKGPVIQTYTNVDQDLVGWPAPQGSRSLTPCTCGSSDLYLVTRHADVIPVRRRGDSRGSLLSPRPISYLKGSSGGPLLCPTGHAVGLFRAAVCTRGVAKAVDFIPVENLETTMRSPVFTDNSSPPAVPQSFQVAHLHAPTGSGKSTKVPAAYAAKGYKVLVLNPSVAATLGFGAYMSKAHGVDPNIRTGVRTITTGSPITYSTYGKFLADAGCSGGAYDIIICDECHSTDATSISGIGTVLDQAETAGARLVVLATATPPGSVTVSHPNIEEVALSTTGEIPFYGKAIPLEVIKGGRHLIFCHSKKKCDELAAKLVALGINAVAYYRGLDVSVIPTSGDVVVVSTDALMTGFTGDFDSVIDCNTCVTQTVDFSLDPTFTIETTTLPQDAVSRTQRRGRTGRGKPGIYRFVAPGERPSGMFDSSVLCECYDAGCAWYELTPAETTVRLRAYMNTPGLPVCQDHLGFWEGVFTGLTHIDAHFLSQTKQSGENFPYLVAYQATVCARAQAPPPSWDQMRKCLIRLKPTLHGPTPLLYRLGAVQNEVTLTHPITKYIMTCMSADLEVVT
Excerpt: NS3-NS4 inhibition activity can be determined using known assay methods. For example, NS3/NS4 complexes may be formed and inhibitory concentrations of test compounds determined as described in U.S. Patent Application Publication Number 2007/0054842 paragraph numbers 1497-1509, which is incorporated herein by reference in its entirety. Similarly, hepatitis C replicon EC50 may be determined using known assay methods such as described in U.S. Patent Application Publication Number 2007/0054842 paragraph numbers 1510-1515, which is incorporated herein by reference in its entirety. Assays may be conducted at ambient temperature (23° C.) in assay buffer containing 50 mM Tris-HCl, pH 7.5, 15% glycerol, 0.6 mM Lauryldimethylamine Oxide (LDAO), 25 μM NS4A peptide, and 10 mM Dithiothreitol (DTT).

[1] = hepatitis C replicon, read-out: EC50

Row | SMILES | EC50 (hepatitis C replicon; [1]) [nM] | IC50 (NS3/NS4 complexes) [nM] | EC50 (hepatitis C replicon) [nM]
1 | CC(C)n1c(O[C@@H]2C[C@H]3C(=O)N[C@]4(C(=O)NS(=O)(=O)N(C)C)C[C@H]4/C=C\CCCCC[C@H](NC(=O)OC(C)(C)C)C(=O)N3C2)nc2c(-c3cncc(N4CCCC4)n3)cccc21 [Compound 162] | < 10 | < 10 | 
2 | CC(C)n1c(O[C@@H]2C[C@H]3C(=O)N[C@]4(C(=O)NS(=O)(=O)C5(C)CC5)C[C@H]4/C=C\CCCCC[C@H](NC(=O)OC(C)(C)C)C(=O)N3C2)nc2c(-c3nc(-c4ccc(OC(F)(F)F)cc4)cs3)cccc21 [Compound 110] | > 100 | < 10 | 
3 | COc1ccccc1Cc1csc(-c2cccc3c2nc(O[C@@H]2C[C@H]4C(=O)N[C@]5(C(=O)NS(=O)(=O)C6(C)CC6)C[C@H]5/C=C\CCCCC[C@H](NC(=O)OC(C)(C)C)C(=O)N4C2)n3C(C)C)n1 [Compound 115] | < 10 | < 10 | 
4 | CC(C)n1c(O[C@@H]2C[C@H]3C(=O)N[C@]4(C(=O)NS(=O)(=O)C5(C)CC5)C[C@H]4/C=C\CCCCC[C@H](NC(=O)OC(C)(C)C)C(=O)N3C2)nc2c(-c3nc(-c4cccc(F)c4)cs3)cccc21 [Compound 104] | 10 to 100 | < 10 | 
5 | CC(C)n1c(O[C@@H]2C[C@H]3C(=O)N[C@]4(C(=O)NS(=O)(=O)C5(C)CC5)C[C@H]4/C=C\CCCCC[C@H](NC(=O)OC(C)(C)C)C(=O)N3C2)nc2c(-c3nc(Cc4ccc(Cl)cc4)cs3)cccc21 [Compound 122] | > 100 | < 10 | 
6 | CC(C)n1c(O[C@@H]2C[C@H]3C(=O)N[C@]4(C(=O)NS(=O)(=O)N(C)C)C[C@H]4/C=C\CCCCC[C@H](NC(=O)OC(C)(C)C)C(=O)N3C2)nc2c(-c3csc(N4CCN(C)CC4)n3)cccc21 [Compound 160] | < 10 | < 10 | 
7 | CC(C)n1c(O[C@@H]2C[C@H]3C(=O)N[C@]4(C(=O)NS(=O)(=O)N(C)C)C[C@H]4/C=C\CCCCC[C@H](NC(=O)OC(C)(C)C)C(=O)N3C2)nc2c(-c3nc(-c4ccc(F)cc4)cs3)cccc21 [Compound 134] | 10 to 100 | < 10 | 
8 | CC(C)n1c(O[C@@H]2C[C@H]3C(=O)N[C@]4(C(=O)NS(=O)(=O)C5CC5)C[C@H]4/C=C\CCCCC[C@H](NC(=O)OC(C)(C)C)C(=O)N3C2)nc2c(-c3nc(C4CCNCC4)cs3)cccc21 [Compound 190] | < 10 | < 10 | 
9 | CC(C)n1c(O[C@@H]2C[C@H]3C(=O)N[C@]4(C(=O)NS(=O)(=O)C5(C)CC5)C[C@H]4/C=C\CCCCC[C@H](NC(=O)OC(C)(C)C)C(=O)N3C2)nc2c(-c3nc(C4CCN(C)CC4)cs3)cccc21 [Compound 183] | < 10 | < 10 | 
10 | CC(C)(C)OC(=O)N[C@H]1CCCCC/C=C\[C@@H]2C[C@@]2(C(=O)NS(=O)(=O)C2(C)CC2)NC(=O)[C@@H]2C[C@@H](Oc3ncnc4c3CCCC4)CN2C1=O [Compound 301] | 10 to 100 | < 10 | 
11 | CC(C)n1c(O[C@@H]2C[C@H]3C(=O)N[C@]4(C(=O)NS(=O)(=O)N(C)C)C[C@H]4/C=C\CCCCC[C@H](NC(=O)OC(C)(C)C)C(=O)N3C2)nc2c(-c3nc(Cc4ccccc4F)cs3)cccc21 [Compound 156] | < 10 | < 10 | 
12 | CC(C)n1c(O[C@@H]2C[C@H]3C(=O)N[C@]4(C(=O)NS(=O)(=O)N(C)C)C[C@H]4/C=C\CCCCC[C@H](NC(=O)OC(C)(C)C)C(=O)N3C2)nc2c(-c3nc(-c4ccc(Br)cc4)cs3)cccc21 [Compound 137] | > 100 | < 10 | 
13 | COc1ccc2c(O[C@@H]3C[C@H]4C(=O)N[C@]5(C(=O)NS(=O)(=O)C6(C)CC6)C[C@H]5/C=C\CCCCC[C@H](N)C(=O)N4C3)cc(C(C)C)nc2c1C [Compound 502] | > 100 | < 10 | 
14 | CC(C)n1c(O[C@@H]2C[C@H]3C(=O)N[C@]4(C(=O)NS(=O)(=O)N(C)C)C[C@H]4/C=C\CCCCC[C@H](NC(=O)OC(C)(C)C)C(=O)N3C2)nc2c(-c3nc(-c4ccc(F)c(F)c4)cs3)cccc21 [Compound 140] | < 10 | < 10 | 
15 | CC(C)n1c(O[C@@H]2C[C@H]3C(=O)N[C@]4(C(=O)NS(=O)(=O)C5(C)CC5)C[C@H]4/C=C\CCCCC[C@H](N)C(=O)N3C2)nc2c(-c3csc(N4CCCCC4)n3)cccc21 [Compound 170] |  | < 10 | 10 to 100
16 | CC(C)n1c(O[C@@H]2C[C@H]3C(=O)N[C@]4(C(=O)NS(=O)(=O)N(C)C)C[C@H]4/C=C\CCCCC[C@H](NC(=O)OC(C)(C)C)C(=O)N3C2)nc2c(-c3nc(Cc4ccc(-c5ccccc5)cc4)cs3)cccc21 [Compound 154] | 10 to 100 | < 10 | 
17 | CC(C)(C)OC(=O)N[C@H]1CCCCC/C=C\[C@@H]2C[C@@]2(C(=O)NS(=O)(=O)C2(C)CC2)NC(=O)[C@@H]2C[C@@H](Oc3nc4c(-c5nc(C6CCCCC6)cs5)cccc4nc3C(F)(F)F)CN2C1=O [Compound 702] | < 10 | < 10 | 
18 | COc1ccccc1-c1csc(-c2cccc3c2nc(O[C@@H]2C[C@H]4C(=O)N[C@]5(C(=O)NS(=O)(=O)C6(C)CC6)C[C@H]5/C=C\CCCCC[C@H](NC(=O)OC(C)(C)C)C(=O)N4C2)n3C(C)C)n1 [Compound 102] | < 10 | < 10 | 
19 | CC(C)n1c(O[C@@H]2C[C@H]3C(=O)N[C@]4(C(=O)NS(=O)(=O)C5(C)CC5)C[C@H]4/C=C\CCCCC[C@H](NC(=O)OC(C)(C)C)C(=O)N3C2)nc2c(-c3nc(-c4ccc(Cl)c(Cl)c4)cs3)cccc21 [Compound 107] | 10 to 100 | < 10 | 
20 | COc1cccc(-c2csc(-c3cccc4c3nc(O[C@@H]3C[C@H]5C(=O)N[C@]6(C(=O)NS(=O)(=O)N(C)C)C[C@H]6/C=C\CCCCC[C@H](NC(=O)OC(C)(C)C)C(=O)N5C3)n4C(C)C)n2)c1 [Compound 132] | 10 to 100 | < 10 | 
21 | CC(C)n1c(O[C@@H]2C[C@H]3C(=O)N[C@]4(C(=O)NS(=O)(=O)N(C)C)C[C@H]4/C=C\CCCCC[C@H](NC(=O)OC(C)(C)C)C(=O)N3C2)nc2c(-c3nc(Cc4ccc(Cl)cc4)cs3)cccc21 [Compound 151] | < 10 | < 10 | 
22 | CC(C)n1c(O[C@@H]2C[C@H]3C(=O)N[C@]4(C(=O)NS(=O)(=O)N(C)C)C[C@H]4/C=C\CCCCC[C@H](NC(=O)OC(C)(C)C)C(=O)N3C2)nc2c(-c3cncnc3)cccc21 [Compound 161] | < 10 | < 10 | 
23 | CC(C)n1c(O[C@@H]2C[C@H]3C(=O)N[C@]4(C(=O)NS(=O)(=O)C5(C)CC5)C[C@H]4/C=C\CCCCC[C@H](NC(=O)OC(C)(C)C)C(=O)N3C2)nc2c(-c3nc(Cc4cccc(C(F)(F)F)c4)cs3)cccc21 [Compound 119] | 10 to 100 | < 10 | 
24 | CC(C)n1c(O[C@@H]2C[C@H]3C(=O)N[C@]4(C(=O)NS(=O)(=O)C5(C)CC5)C[C@H]4/C=C\CCCCC[C@H](NC(=O)OC(C)(C)C)C(=O)N3C2)nc2c(-c3nc(-c4ccc(F)cc4F)cs3)cccc21 [Compound 111] | 10 to 100 | < 10 | 
25 | CC(C)n1c(O[C@@H]2C[C@H]3C(=O)N[C@]4(C(=O)NS(=O)(=O)N(C)C)C[C@H]4/C=C\CCCCC[C@H](NC(=O)OC(C)(C)C)C(=O)N3C2)nc2c(-c3nc(-c4cccc(Cl)c4)cs3)cccc21 [Compound 130] | 10 to 100 | < 10 | 
26 | CC(C)n1c(O[C@@H]2C[C@H]3C(=O)N[C@]4(C(=O)NS(=O)(=O)N(C)C)C[C@H]4/C=C\CCCCC[C@H](NC(=O)OC(C)(C)C)C(=O)N3C2)nc2c(-c3nc(-c4ccc(C(C)(C)C)cc4)cs3)cccc21 [Compound 143] | 10 to 100 | < 10 | 
